# Reference: paper PMC11707700, “Exploiting fourth-generation synchrotron radiation for enzyme and photoreceptor characterization” (IUCrJ, 2025)
# Columns and labels:
# SaBphP2-PCM = molecular target: T1, SaBphP2-PCM (Allostigmatella aurantiaca, UniProt Q09E27); assay: serial synchrotron X-ray crystallography (room temperature); assay type: binding; details: covalent; chromophore; dark Pr state, 2.1 A refinement; also difference map 700 ms after 640 nm light
# T1 construct: gene STIAU_8420; photosensory core module (PAS-GAF-PHY), lacks C-terminal effector (histidine kinase) domain; recombinant; homodimer
# T1 sequence (Q09E27 1-490): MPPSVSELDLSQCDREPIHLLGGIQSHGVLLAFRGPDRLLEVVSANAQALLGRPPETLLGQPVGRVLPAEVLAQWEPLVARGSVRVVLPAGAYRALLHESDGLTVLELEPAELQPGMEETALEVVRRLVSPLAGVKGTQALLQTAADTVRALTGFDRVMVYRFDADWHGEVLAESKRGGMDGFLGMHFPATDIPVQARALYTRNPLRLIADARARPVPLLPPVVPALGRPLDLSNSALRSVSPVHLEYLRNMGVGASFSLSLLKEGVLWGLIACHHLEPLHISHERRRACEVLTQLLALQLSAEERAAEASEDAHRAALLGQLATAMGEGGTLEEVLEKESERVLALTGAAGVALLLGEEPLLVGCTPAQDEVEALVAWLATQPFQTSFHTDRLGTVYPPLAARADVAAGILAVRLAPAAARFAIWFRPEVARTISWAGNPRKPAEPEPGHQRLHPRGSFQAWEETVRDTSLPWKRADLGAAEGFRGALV
# [1] = molecular target: T2, photoactive yellow protein (PYP) (Halorhodospira halophila, UniProt P16113); assay: as above; assay type: binding; details: covalent; thioester to conserved cysteine; space group P6_5, 1.8 A (fixed target) and 1.9 A (tape drive); PEG 4000, MES pH 6.5
# T2 construct: full length, 125 amino acids, 14 kDa; overexpressed in Escherichia coli; chromophore attached to the conserved cysteine
# T2 sequence (P16113 1-125): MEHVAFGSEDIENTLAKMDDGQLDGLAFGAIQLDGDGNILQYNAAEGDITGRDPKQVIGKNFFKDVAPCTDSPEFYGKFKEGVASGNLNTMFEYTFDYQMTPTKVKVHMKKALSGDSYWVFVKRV
Structure (SMILES),serial synchrotron X-ray crystallography (room temperature) (SaBphP2-PCM),serial synchrotron X-ray crystallography (room temperature) [1]
C=CC1=C(C)/C(=C/C2=NC(=C\c3[nH]c(/C=C4\NC(=O)C(C)=C4C=C)c(C)c3CCC(=O)O)/C(CCC(=O)O)=C2C)NC1=O [biliverdin],"The DED features, localized to the BV chromophore, indicate displacement of the BV",–
O=C(O)/C=C/c1ccc(O)cc1 [p-coumaric acid],–,The pCA chromophore pocket is marked by the red box
